Like-named read-outs stand apart in the source and are kept apart here.
Columns and labels:
Human β2 adrenoceptor = target: T1, Human β2 adrenoceptor (Homo sapiens, UniProt P07550); test: β2 adrenoceptor radioligand binding assay; settings: human β2 adrenoceptor membranes, 125-I cyanopindolol, Ki from IC50 by Cheng and Prusoff
T1 construct: purchased Perkin Elmer
Method: Example. β2 Adrenoceptor Radioligand Binding Assay
Human β2 adrenoceptor membranes (7.5 ug/well) from Perkin Elmer were incubated with 0.3 nM 125-I Cyanopindolol with or without test compounds, or a saturating concentration of s-propranolol (2 μM) for the determination of non-specific binding. The assay was carried out in 96-well polypropylene plates in a volume of 200 ul. The assay buffer used was 25 mM HEPES, 0.5% BSA (w/v), 1 mM EDTA, 0.02% ascorbic acid (v/v), (pH 7.4). The final assay concentration of DMSO was 0.5% (v/v). The plates were sealed and incubated for 1 hour at room temperature on an orbital shaker (slow speed). Membranes were harvested onto 96-well unifilter GF/C filter plates pre-treated with 0.5% polyethyleneimine (v/v), using a filter manifold, washed six times with 200 μl of wash buffer containing 10 mM HEPES and 500 mM NaCl. The plates were dried before addition of 50 μl of microscint-0, sealed then read in a Trilux Microbeta scintillation counter. IC50 values are determined from competition curves using a non-linear curve fitting program. Ki values were calculated from IC50 values by the Cheng and Prusoff equation.

Human M3 receptor = target: T2, Human M3 receptor (Homo sapiens, UniProt P20309); test: M3 receptor radioligand binding assay; settings: human M3 receptor membranes, [N-methyl-3H] scopolamine methyl chloride, Ki from IC50 by Cheng and Prusoff
T2 construct: purchased Perkin Elmer
Method: Example. M3 Receptor Radioligand Binding Assay
The assay was carried out in 96-well polypropylene plates in a volume of 250 ul. […] The final assay concentration of DMSO was 0.5% (v/v). The plates were sealed and incubated for 2 hours at room temperature on an orbital shaker (slow speed). Membranes were harvested onto 96-well unifilter GF/C filter plates pre-treated with 0.5% polyethyleneimine (v/v), using a filter manifold, washed four times with 200 μl of assay buffer. The plates were dried before addition of 50 μl of microscint-0, sealed then read in a Trilux Microbeta scintillation counter. IC50 values are determined from competition curves using a non-linear curve fitting program. Ki values were calculated from IC50 values by the Cheng and Prusoff equation.

[1] = read-out: B2 binding affinity (Ki class)
[2] = read-out: M3 binding affinity (Ki class)

T1 sequence (P07550 whole entry): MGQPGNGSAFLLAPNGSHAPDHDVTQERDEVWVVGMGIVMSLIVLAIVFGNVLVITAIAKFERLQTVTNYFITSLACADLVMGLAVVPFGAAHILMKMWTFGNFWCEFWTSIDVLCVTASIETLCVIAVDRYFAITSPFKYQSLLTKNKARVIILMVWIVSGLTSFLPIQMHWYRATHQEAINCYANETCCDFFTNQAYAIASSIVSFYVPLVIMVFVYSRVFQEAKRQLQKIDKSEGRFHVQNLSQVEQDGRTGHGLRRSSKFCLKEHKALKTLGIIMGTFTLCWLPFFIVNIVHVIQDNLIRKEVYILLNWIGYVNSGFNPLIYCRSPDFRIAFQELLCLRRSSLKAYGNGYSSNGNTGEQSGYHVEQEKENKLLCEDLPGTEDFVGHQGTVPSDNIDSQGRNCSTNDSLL
T2 sequence (P20309 whole entry): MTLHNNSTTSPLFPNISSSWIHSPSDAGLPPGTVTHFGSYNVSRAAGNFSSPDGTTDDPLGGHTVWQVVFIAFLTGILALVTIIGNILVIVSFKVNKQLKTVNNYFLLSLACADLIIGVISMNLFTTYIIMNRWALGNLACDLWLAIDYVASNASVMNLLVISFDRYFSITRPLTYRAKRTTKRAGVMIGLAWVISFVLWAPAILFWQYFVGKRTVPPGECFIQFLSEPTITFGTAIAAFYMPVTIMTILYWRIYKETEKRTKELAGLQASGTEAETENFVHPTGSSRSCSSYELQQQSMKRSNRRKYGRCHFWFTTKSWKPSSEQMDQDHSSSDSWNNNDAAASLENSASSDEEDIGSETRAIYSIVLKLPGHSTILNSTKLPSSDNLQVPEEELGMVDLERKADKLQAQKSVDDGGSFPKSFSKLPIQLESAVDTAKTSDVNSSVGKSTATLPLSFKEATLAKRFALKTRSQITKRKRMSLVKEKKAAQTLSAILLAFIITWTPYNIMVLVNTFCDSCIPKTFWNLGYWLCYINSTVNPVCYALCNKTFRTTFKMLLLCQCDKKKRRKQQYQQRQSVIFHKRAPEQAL

| SMILES | Ki (Human β2 adrenoceptor; [1]) [nM] | Ki (Human M3 receptor; [2]) [nM] | Ki (Human β2 adrenoceptor; B2 binding affinity (Ki class)) [nM] | Ki (Human M3 receptor; M3 binding affinity (Ki class)) [nM] |
| --- | --- | --- | --- | --- |
| O=C(NCCCCNC[C@H](O)c1ccc(O)c2[nH]c(=O)ccc12)c1cccc(C(=O)NC2(C(=O)O[C@H]3CN4CCC3CC4)CCc3ccccc32)c1 (stereo partly drawn) [Compound 8, (R)-quinuclidin-3-yl 1-(3-((4-(((R)-2-hydroxy-2-(8-hydroxy-2-oxo-1,2-dihydroquinolin-5-yl)ethyl)amino)butyl)carbamoyl)benzamido)-2,3-dihydro-1H-indene-1-carboxylate] | > 10 | 1 to 10 | – | – |
| O=C(NC1(C(=O)O[C@H]2CN3CCC2CC3)Cc2ccccc2C1)c1cccc(OCCCCCNC[C@H](O)c2ccc(O)c3[nH]c(=O)ccc23)c1 [Compound 13, (R)-quinuclidin-3-yl 2-(3-((5-(((R)-2-hydroxy-2-(8-hydroxy-2-oxo-1,2-dihydroquinolin-5-yl)ethyl)amino)pentyl)oxy)benzamido)-2,3-dihydro-1H-indene-2-carboxylate] | 1 to 10 | < 1 | – | – |
| CC(C)N1CCC(COC(=O)C2(NC(=O)c3cccc(OCCCCCCNC[C@H](O)c4ccc(O)c5[nH]c(=O)ccc45)c3)CCc3ccccc32)CC1 (stereo partly drawn) [Compound 7, (1-isopropylpiperidin-4-yl)methyl 1-(3-((6-(((R)-2-hydroxy-2-(8-hydroxy-2-oxo-1,2-dihydroquinolin-5-yl)ethyl)amino)hexyl)oxy)benzamido)-2,3-dihydro-1H-indene-1-carboxylate] | > 10 | < 1 | – | – |
| O=C(NC1(C(=O)O[C@H]2CN3CCC2CC3)CCc2ccccc21)c1cccc(OCCCCCNC[C@H](O)c2ccc(O)c3[nH]c(=O)ccc23)c1 (stereo partly drawn) [Compound 2, (R)-quinuclidin-3-yl 1-(3-((5-(((R)-2-hydroxy-2-(8-hydroxy-2-oxo-1,2-dihydroquinolin-5-yl)ethyl)amino)pentyl)oxy)benzamido)-2,3-dihydro-1H-indene-1-carboxylate] | – | – | < 1 | < 1 |
| O=C(NC1(C(=O)O[C@H]2CN3CCC2CC3)CCc2ccccc21)c1cccc(COCCCCNC[C@H](O)c2ccc(O)c3[nH]c(=O)ccc23)c1 (stereo partly drawn) [Compound 12, (R)-quinuclidin-3-yl 1-(3-((4-(((R)-2-hydroxy-2-(8-hydroxy-2-oxo-1,2-dihydroquinolin-5-yl)ethyl)amino)butoxy)methyl)benzamido)-2,3-dihydro-1H-indene-1-carboxylate] | > 10 | 1 to 10 | – | – |
| O=C(NC1(C(=O)O[C@H]2CN3CCC2CC3)CCc2ccccc21)c1cccc(OCCCCNC[C@H](O)c2ccc(O)c3[nH]c(=O)ccc23)c1 (stereo partly drawn) [Compound 6, (R)-quinuclidin-3-yl 1-(3-(4-(((R)-2-hydroxy-2-(8-hydroxy-2-oxo-1,2-dihydroquinolin-5-yl)ethyl)amino)butoxy)benzamido)-2,3-dihydro-1H-indene-1-carboxylate] | 1 to 10 | < 1 | – | – |
| O=C(O[C@H]1CN2CCC1CC2)C1(NCc2cccc(OCCCCCNC[C@H](O)c3ccc(O)c4[nH]c(=O)ccc34)c2)CCc2ccccc21 (stereo partly drawn) [Compound 3, (R)-quinuclidin-3-yl 1-((3-((5-(((R)-2-hydroxy-2-(8-hydroxy-2-oxo-1,2-dihydroquinolin-5-yl)ethyl)amino)pentyl)oxy)benzyl)amino)-2,3-dihydro-1H-indene-1-carboxylate] | < 1 | < 1 | – | – |
| O=C(NCCCCNC[C@H](O)c1ccc(O)c2[nH]c(=O)ccc12)c1ccc(CNC2(C(=O)O[C@@H]3CCN(Cc4ccccc4)C3)CCc3ccccc32)s1 (single isomer, unassigned; stereoisomer 1) [Compound 26] | > 10 | > 10 | – | – |
| O=C(NCCCCNC[C@H](O)c1ccc(O)c2[nH]c(=O)ccc12)c1ccc(CNC2(C(=O)O[C@H]3CN4CCC3CC4)CCc3ccccc32)s1 (stereo partly drawn) [Compound 4, (R)-quinuclidin-3-yl 1-(((5-((4-(((R)-2-hydroxy-2-(8-hydroxy-2-oxo-1,2-dihydroquinolin-5-yl)ethyl)amino)butyl)carbamoyl)thiophen-2-yl)methyl)amino)-2,3-dihydro-1H-indene-1-carboxylate] | < 1 | < 1 | – | – |
| Cc1cccc2c1CCC2(NC(=O)c1cccc(OCCCCCNC[C@H](O)c2ccc(O)c3[nH]c(=O)ccc23)c1)C(=O)O[C@H]1CN2CCC1CC2 (single isomer, unassigned; diastereoisomer 1) [Compound 5A] | 1 to 10 | 1 to 10 | – | – |
| O=C(NCCCCNC[C@H](O)c1ccc(O)c2[nH]c(=O)ccc12)c1ccc(CNC2(C(=O)O[C@H]3CN4CCC3CC4)Cc3ccccc3C2)s1 [Compound 14, (R)-quinuclidin-3-yl 2-(((5-((4-(((R)-2-hydroxy-2-(8-hydroxy-2-oxo-1,2-dihydroquinolin-5-yl)ethyl)amino)butyl)carbamoyl)thiophen-2-yl)methyl)amino)-2,3-dihydro-1H-indene-2-carboxylate] | 1 to 10 | < 1 | – | – |
| O=C(O[C@H]1CN2CCC1CC2)C1(NCc2cccc(OCc3ccc(CNC[C@H](O)c4ccc(O)c5[nH]c(=O)ccc45)cc3)c2)CCc2ccccc21 (stereo partly drawn) [Compound 20, (R)-quinuclidin-3-yl 1-((3-((4-((((R)-2-hydroxy-2-(8-hydroxy-2-oxo-1,2-dihydroquinolin-5-yl)ethyl)amino)methyl)benzyl)oxy)benzyl)amino)-2,3-dihydro-1H-indene-1-carboxylate] | < 1 | 1 to 10 | – | – |
